{"source": "patent US20080032889A1", "about": "“6-(2-Fluorophenyl)-Triazolopyrimidines, Method For The Production Thereof, Use Thereof For Controlling Harmful Fungi, And Agents Containing The Same” (BASF AKTIENGESELLSCHAFT, priority 2004, published 2008)", "system": "Botrytis cinerea", "assay": "Activity against gray mold caused by Botrytis cinerea on bell pepper plants, protective application", "type": "in vivo", "conditions": "200 ppm, protective spray, bell pepper \"California Wonder\", after about 3 days; untreated plants 100% infected", "procedure": "Comparative Experiment 1—Activity Against Gray Mold Caused by Botrytis cinerea, Protective Application Potted bell pepper plants of the cultivar “California Wonder” were sprayed to runoff point with an aqueous suspension having the active compound concentration stated below. The suspension or emulsion had been prepared by dilution with water from a stock solution comprising 5% of active compound, 94% of cyclohexanone and 1% of emulsifier (Tween 20). 2-5 hours after the spray coating had dried on, the plants were dusted with spores of gray mold (Botrytis cinerea). The test plants were then incubated in a humid chamber at temperatures between 20 and 22° C. and at 100% relative atmospheric humidity. After about 3 days, the extent of the pathogen development was determined visually in % infection of the entire leaf area.", "data": [{"smiles": "CC(C)Nc1c(-c2ccccc2F)c(Cl)nc2ncnn12", "note": "[compound A]", "values": [{"measurement": "infection of the entire leaf area", "value": 90, "unit": "%"}]}]}
